Assay results from paper PMC12775124, “CUL4A-DDB1-DCAF10 is an N-recognin for N-terminally acetylated Src kinases” (Nature Communications, 2026).

Columns and labels:
DCAF10 = test: Peptide pull-down with quantitative MS, HeLa lysate, DCAF10; type: binding, human (HeLa); conditions: HeLa lysate; for DCAF10 binding (in words): Nt-Ac vs Nt-free peptides
Protocol: Beads presenting 10-residue synthetic Nt-peptides of proteins of interest in their free (Nt-free) or modified (e.g., Nt-acetylated) versions were incubated with lysates from HeLa cells, followed by MS-based quantification of retained binders (Fig. 1a).
Biotinylated 10-mer Nt-peptides (Nt-free, Nt-acetylated, and, where indicated, Nt-myristoylated; sequences in Supplementary Table 1) were synthesized with a C-terminal Lys3 spacer and biotin, immobilized on magnetic streptavidin beads, and incubated with HeLa or mouse liver lysates. After standardized washes, bound proteins were on-bead reduced/alkylated, digested with LysC/trypsin, desalted, and analysed by LC-MS in DIA mode (Orbitrap Exploris 480) as described previously[24]. Variants included endogenous Nt-sequences, swap and mutant (Ala-Ala-Ala or Nt-amino acids) peptides, and pairwise comparisons of conditions of interest.
All MS experiments were performed as independent biological triplicates. Relative protein quantification was carried out using the label-free algorithm integrated in DIA-NN[53], and statistical testing was performed in Perseus using a two-sided Student’s t test with permutation-based multiple-testing-adjusted p-values[53],[54], as specified in the figure legends. […] Volcano blots were visualized with RStudio (version 2023.06.0). […] Cell experiments were performed as biological replicates, and binding assays as independent assays. […] Data are presented as mean ± s.d. Fold changes are reported as the ratio of the normalized value for the condition of interest to the normalized control value, with mean ± s.d. computed across biological replicates.

GST-DCAF10 = test: Streptavidin pull-down of GST-DCAF10 with biotinylated Nt-peptides; type: binding, human; conditions: for Binding to GST-DCAF10 (in words) / Nt-free reduction compared to Nt-Ac: 0.5 µM GST-DCAF10, 5 µM peptide, 1 h RT, WB; for Nt-free reduction compared to Nt-Ac: mean ± s.d., n = 3 independent binding assays
Protocol: To confirm direct interactions between peptides and DCAF10, we performed pull-down assays using bead-bound Nt-peptide variants incubated with purified full-length GST-DCAF10 or GST as a negative control (Fig. 2m–p and Supplementary Fig. 4a).
230 of 1:100), and desalted/concentrated on C18 reversed phase stage tips as previously
MS measurements settings are stated in MS measurements and raw file
BL21(DE3) cells (Thermo Fisher Scientific,
240 agar) plate containing 100 μg/mL ampicillin and 34 μg/mL chloramphenicol, then
Terrific broth (TB) medium (24 g/L yeast extract,
243 20 g/L tryptone, glycerol 4 mL/L, 100 mL/L phosphate buffer containing 0.17 M KH2PO4
244 and 0.72 M K2HPO4) was used to prepare a 1:100 dilution of the starter culture, and OD600
At OD600 = 1, protein induction was initiated by adding 1 mM
247 day, pellets were homogenized and lysed in glycerol lysis buffer (20 mM Tris-HCl pH
Lysis was performed on ice for 30 min, followed by
250 sonication (7 × 20 sec pulses with 20 sec breaks on ice) using a Bandelin sonoplus
Lysates were centrifuged at 4°C for 1 h
253 medium culture was lysed in 20 mL of supernatant (collected in 20 × 1 mL tubes). GST
255 agarose bead; Thermo Fisher Scientific, Waltham, MA, USA). For each 1 mL of
100 μL of GST magnetic beads
257 were washed twice with 500 μL of wash buffer (125 mM Tris-HCl pH 7.4, 150 mM NaCl,
The lysis supernatant was diluted 1:1 with
259 wash buffer, and incubated with the beads on an end-over-end rotator for 1 h at 25°C.
260 After incubation, the supernatant was removed, and the beads were washed twice with
Protein elution was then performed by incubating
263 pH 7.4, 250 mM NaCl, 0.3% Triton X-100) for 30 min at 25°C on an end-over-end rotator.
265 under the same conditions. Elution fractions were pooled and concentrated by
266 centrifugation (4°C, 25 min, 4500 rpm) using a 30 kDa cut-off concentrator (Merck
267 Millipore, #UFC803008, Darmstadt, Germany). Purified proteins were analyzed by
268 colloidal Coomassie stain, WB and MS.
270 Streptavidin pull-downs with GST-DCAF10 and biotinylated peptides
271 Streptavidin magnetic beads (DynabeadsTM MyOneTM Streptavidin T1; Thermo Fisher
272 Scientific, Waltham, MA, USA) were washed twice with 500 μL of wash buffer (125 mM
273 Tris-HCl pH 7.4, 150 mM NaCl, 0.1% Triton X-100). An excess of peptides was added
274 (to ensure full occupancy of the beads) and incubated for 30 min at RT. After peptide
275 binding, beads were again washed three times with 500 μL of wash buffer. The pull-down
276 was then performed in a 100 μL reaction volume with final concentrations of 0.5 µM
277 GST-DCAF10 and 5 µM peptide. GST-DCAF10 or GST alone (as a control) was added
278 to the peptide-streptavidin beads and incubated on a rotator for 1 h at RT. After incubation,
279 the beads were washed three times with 500 μL of wash buffer and resuspended in 4x
280 Laemmli buffer. 1/5 of the input (GST-DCAF10 and GST) and 9/10 of the sample were
281 loaded on a 10% SDS gel and blotted with anti-GST and anti-DCAF10 antibodies, while
282 1/10 was loaded on a 15% SDS gel and blotted with anti-streptavidin antibody to assess
283 equal peptide loading.
285 Streptavidin Sepharose High Performance, GE Healthcare, Chicago, IL, USA) were used.
286 After washing with a high salt wash buffer without detergents (125 mM Tris-HCl pH 7.4,
287 400 mM NaCl), an excess of peptides was added and incubated for 30 min at RT. For each
288 reaction, 10 µL of slurry beads were used. After peptide-binding, beads were again
289 washed once with a high salt wash buffer without detergents and twice with binding buffer
290 without detergents (125 mM Tris-HCl pH 7.4, 150 mM NaCl). The pull-downs were
291 performed in a 100 μL reaction volume in binding buffer without detergents with a final
292 concentration of 0.5 µM GST-DCAF10 and incubated rotating for 1 h at RT. After
293 incubation, the beads were washed five times with 500 μL of high salt wash buffer without […]

pY397 Lyn = test: Phosphorylation of Lyn-GFP variants at pY397, Western blot (reviewers only); type: cell-based, human; conditions: preliminary experiment, unstimulated cells, three independent blots
From the text: distinct in term of phospho-tyrosine activity?
We agree that understanding the functional consequences of N-terminal acetylation versus myristoylation—particularly regarding kinase activity and localization—is among the most relevant questions and a key next step in this project. As an initial indication, we performed a preliminary experiment using full-length Lyn constructs (LynWT-GFP, LynG2A-GFP, and LynG2P-GFP) with or without NMT1/2 RNAi and probed the activating phospho-tyrosine site of Lyn (pY397). We observed marked […]
upon NMT1/2 knockdown specifically at the activating pY397 site, while global pY levels appeared to be largely unchanged in these unstimulated cells, […] (Figure 2 provided to reviewers only). […]
have not included them in the manuscript but provide them for the reviewers’ information only, as we are working on consequences for kinase activity and biological role. We plan to pursue a systematic analysis under stimulated conditions, quantifying pY patterns and localization changes to define how the N-terminal state affects SFK signaling output. […]
Fig. 2 for reviewers only. a) LynWT-GFP, LynG2A-GFP and LynG2P-GFP expressing cells were treated with NMT1/2 RNAi or left untreated and then blotted against anti-pY397 Lyn, pan-anti-pY and controls. b) Quantification of three independent blots. […]

How did the “DCAF10 binding, Nt-Ac vs Nt-Myr (in words)” value (DCAF10) turn out when “GCIKSKGKDSKK [Ac-Lyn, Nt-peptide of Lyn (aa 1–10 + KKK-biotin), Nt-acetylated]” was run?
The value was “DCAF10 selectively recognizes the acetylated form”.

What about the “DCAF10 binding (in words)” value (DCAF10) of the same substance?
Its value is “bound to DCAF10”.

What about the “log₂ difference Ac-Lyn vs Ac-THOC7, DCAF10” value (DCAF10; n = 3) of the same substance?
The value was 5.83.

What about the “Binding to GST-DCAF10 (in words)” value (GST-DCAF10; listed as Nt-acetylated Lyn) of the same substance?
Its value is “bound robustly to GST-DCAF10”.

How did the “Binding to GST-DCAF10 (in words)” value (GST-DCAF10; listed as Lyn Nt-free) turn out when “GCIKSKGKDSKK [Nt-free Lyn, Nt-peptide of Lyn (aa 1–10 + KKK-biotin), Nt-free]” was run?
Its value is “bound only weakly”.

And the “Nt-free reduction compared to Nt-Ac” value (GST-DCAF10)?
The value was 88.5 ± 14.7%.

For “GSNKSKPKDAKK [Ac-Src, Nt-peptide of Src, Nt-acetylated]”, which “DCAF10 binding in initial pull-downs, log2” value (DCAF10; Ac-Src vs Nt-free Src) is on record?
The value was ~5 log2.

What about the “DCAF10 binding (in words)” value (DCAF10) of the same substance?
Its value is “bound to DCAF10”.

What about the “DCAF10 binding, Nt-Ac vs Nt-Myr (in words)” value (DCAF10; listed as Nt-acetylated Src) of the same substance?
Its value is “DCAF10 selectively recognizes the acetylated form”.

And the “Lower binding in pull-downs” value (GST-DCAF10; compared with Lyn and Fyn)?
Its value is ~ 30%.

Which “Binding to GST-DCAF10 (in words)” value (GST-DCAF10) does the source give for “GCVQCKDKEAKK [Nt-free Fyn, Nt-peptide of Fyn, Nt-free]” here?
The value was “bound only weakly”.

And the “Nt-free reduction compared to Nt-Ac” value (GST-DCAF10)?
The value was 82.5 ± 10.8%.

For “Lyn^WT-GFP: doxycycline-inducible C-terminally GFP-fused Lyn in DLD-1 Lyn KO cells”, which “Decrease of pY397 phosphorylation upon NMT1/2 knockdown” value (pY397 Lyn) is on record?
The value was “approximately 15%”.
